Measurements published in ChEMBL document CHEMBL3994640, “Klyflaccisteroids K-M, bioactive steroidal derivatives from a soft coral Klyxum flaccidum” (Bioorg Med Chem Lett, 2017).

Tests used:
[1] = tested on: HT-29; experiment: Cytotoxicity against human HT-29 cells after 72 hrs by alamar blue assay; type: functional, cell-based; settings: HT-29, 72 h
[2] = tested on: P388; experiment: Cytotoxicity against mouse P388 cells after 72 hrs by alamar blue assay; type: functional, cell-based; settings: P388, 72 h
[3] = tested on: K562; experiment: Cytotoxicity against human K562 cells after 72 hrs by alamar blue assay; type: functional, cell-based; settings: K562, 72 h
[4] = tested on: A549; experiment: Cytotoxicity against human A549 cells after 72 hrs by alamar blue assay; type: functional, cell-based; settings: A549, 72 h
[5] = tested on: DLD-1; experiment: Cytotoxicity against human DLD1 cells after 72 hrs by alamar blue assay; type: functional, cell-based; settings: DLD-1, 72 h
[6] = tested on: Neutrophil; experiment: (§1) Anti-inflammatory activity in human neutrophils assessed as inhibition of fMLP/CB-induced superoxide anion generation preincubated for 5 mins followed by cytochalasin B addition for 3 mins and fMLP for 10 mins by superoxide dismutase inhibitable reduction of ferricytochrome c based assay; type: functional, cell-based
[7] = tested on: Neutrophil; experiment: as §1, with “generation at 10 uM” for “generation”, “assay relative to control” for “assay”; type: functional
[8] = tested on: Neutrophil; experiment: Anti-inflammatory activity in human neutrophils assessed as inhibition of fMLP/CB-induced elastase release preincubated for 5 mins followed by fMLP/CB stimulation for 10 mins using MeO-Suc-Ala-Ala-Pro-Val-p-nitroanilide as substrate; type: functional, cell-based
[9] = tested on: Neutrophil; experiment: Anti-inflammatory activity in human neutrophils assessed as inhibition of fMLP/CB-induced elastase release at 10 uM preincubated for 5 mins followed by fMLP/CB stimulation for 10 mins using MeO-Suc-Ala-Ala-Pro-Val-p-nitroanilide as substrate; type: functional

IC50 [6] [µM] | IC50 [8] [µM] | Compound | IC50 [1] [µM] | IC50 [2] [µM] | IC50 [3] [µM] | IC50 [4] [µM] | IC50 [5] [µM] | inhibition at 10 µM [7] [%] | inhibition at 10 µM [9] [%]
> 10 | 5.84 | CC(C)[C@@H](C)C[C@H](O)[C@@H](C)[C@H]1CC[C@H]2[C@@H]3[C@@H](O)C=C4C[C@@H](O)CC[C@]4(C)[C@H]3CC[C@]12C | 36.7 | 31.8 | > 40 | > 40 | > 40 | 12.6 | 79.2
– | – | COc1cccc2c1C(=O)c1c(O)c3c(c(O)c1C2=O)C[C@@](O)(C(=O)CO)C[C@@H]3O[C@H]1C[C@H](N)[C@H](O)[C@H](C)O1 [DOXORUBICIN] | 0.87 | – | – | – | – | – | –
> 10 | > 10 | CC(C)[C@@H](C)[C@@]1(C)C[C@@H]1[C@@H](C)[C@H]1CC[C@H]2[C@@H]3[C@H](O)C=C4C[C@@H](O)CC[C@]4(C)[C@@]3(O)OC[C@]12C | > 40 | > 40 | > 40 | > 40 | > 40 | 1.21 | 25.2

Compound | IC50 [6] [µM] | IC50 [8] [µM] | IC50 [1] [µM] | IC50 [2] [µM] | IC50 [3] [µM] | IC50 [4] [µM] | IC50 [5] [µM] | inhibition at 10 µM [7] [%] | inhibition at 10 µM [9] [%]
CC(C)[C@@H](C)[C@@]1(C)C[C@@H]1[C@@H](C)[C@H]1CC[C@@H]([C@@]23C=C[C@]4(C[C@@H](O)CC[C@]4(C)C2=O)OO3)[C@]1(C)CCO | 5.83 | 1.55 | 27.5 | > 40 | 22.5 | 15.8 | 27.5 | 67 | 111
